The target in test [1] is whole cholera toxin (ctxAB5) (Vibrio cholerae serotype O1, UniProt P01556). It is filed as binding.
Test [2] deals with cholera toxin secreted from Vibrio cholerae culture (Vibrio cholerae serotype O1, UniProt P01556).

Several values for one entry are separate records, joined by “and”; a condition that tells them apart may be missing. Equal entries are not always repeated.

whole cholera toxin (ctxAB5), sequence (P01556 whole entry, looked up): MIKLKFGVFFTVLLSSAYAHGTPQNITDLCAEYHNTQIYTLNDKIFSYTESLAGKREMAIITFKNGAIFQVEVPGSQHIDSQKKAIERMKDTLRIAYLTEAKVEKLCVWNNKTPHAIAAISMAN
cholera toxin secreted from Vibrio cholerae culture, sequence (P01556 whole entry, looked up): as above

For GM1 pentasaccharide, in test [1], the “coefficient of determination of linear relation between fluorescence intensity and whole cholera toxin concentration” value came to 0.9935; the “limit of detection (LOD) of cholera toxin determined from the dose-response curve” value was 2 ng/mL and 23 pM; the “visual limit of detection (LOD) of cholera toxin” value (shortened to “visual limit of detection”) was 5 ng/mL and 57.5 pM; the “whole cholera toxin concentration at which fluorescence intensity was saturated” value was at least 1 µg/mL. For the same substance, the “fluorescence signal with Vibrio cholerae culture” value in test [2] was “high fluorescence intensity”.

For the substance GM2 tetrasaccharide, the “visual limit of detection” value in test [1] was found to be 750 ng/mL. The “fluorescence signal with Vibrio cholerae culture” value in test [2] is reported as “high fluorescence intensity”.

asialo GM1 tetrasaccharide: in test [1], the “visual limit of detection” value turned out to be 1000 ng/mL.

Source of the values: US8912128B2 (priority 2012, dated 2014).
